Patent publication US5541175A, “Cephalosporin antibiotics” (Lucky, Ltd., priority 1993, dated 1996)
Converted amounts (≈) assume the structure as drawn. Like-named read-outs stand apart in the source and are kept apart here.

What was measured:
Assay in all cases: Minimum inhibitory concentration (agar 2-fold dilution)
Assay type in all cases: cell-based
[1] = tested on: Escherichia coli TEM3 3455E; conditions: TEM33455E, 20 h, read-out: Minimum Inhibitory Concentration
Protocol: (§1) The minimum inhibitory concentration was determined by diluting the test compounds according to 2-fold dilution, suspending them in Muller-Hinton agar medium, inoculating 2 μl of the suspension containing the test strains having 10^7 CFU (Colony Forming Unit) per 1 ml into the medium and then culturing the test strains at 37° C. for 20 hours.

[2] = tested on: Salmonella typhimurium 14028A; conditions: Salmonella enterica, read-out: Minimum Inhibitory Concentration
Protocol: as §1

[3] = tested on: Escherichia coli TEM1 1193E; conditions: TEM11193E, 20 h, read-out: Minimum Inhibitory Concentration
Protocol: as §1

[4] = tested on: Pseudomonas aeruginosa 6065; conditions: read-out: Minimum Inhibitory Concentration
Protocol: as §1

[5] = tested on: Klebsiella aerogenes K1 + 1082E; conditions: 20 h, read-out: Minimum Inhibitory Concentration
Protocol: as §1

[6] = tested on: Escherichia coli TEM5 3739E; conditions: TEM53739E, 20 h, read-out: Minimum Inhibitory Concentration
Protocol: as §1

Enterobacter cloacae P99 = conditions: P99, 20 h, read-out: Minimum Inhibitory Concentration
Protocol: as §1

Escherichia coli 10536 = conditions: read-out: Minimum Inhibitory Concentration
Protocol: as §1

[7] = tested on: Staphylococcus aureus 6538P; conditions: read-out: Minimum Inhibitory Concentration
Protocol: as §1

Escherichia coli 851E = conditions: E. coli 851E, Muller-Hinton agar, 37° C., 20 hours
Protocol: as §1

Staphylococcus aureus 77 = conditions: read-out: Minimum Inhibitory Concentration
Protocol: as §1

[8] = tested on: Staphylococcus aureus epidermidis 887E; conditions: read-out: Minimum Inhibitory Concentration
Protocol: as §1

[9] = tested on: Staphylococcus aureus giorgio; conditions: read-out: Minimum Inhibitory Concentration
Protocol: as §1

[10] = tested on: Escherichia coli TEM7 3457E; conditions: TEM73457E, 20 h, read-out: Minimum Inhibitory Concentration
Protocol: as §1

[11] = tested on: Streptococcus faecalis 29212A; conditions: Enterococcus faecalis, read-out: Minimum Inhibitory Concentration
Protocol: as §1

[12] = tested on: Pseudomonas aeruginosa 1912E; conditions: read-out: Minimum Inhibitory Concentration
Protocol: as §1

[13] = tested on: Acinetobacter calcoaceticus 15473A; conditions: read-out: Minimum Inhibitory Concentration
Protocol: as §1

[14] = tested on: Citrobacter diversus 2046E; conditions: Citrobacter koseri, read-out: Minimum Inhibitory Concentration
Protocol: as §1

[15] = tested on: Staphylococcus aureus 241; conditions: read-out: Minimum Inhibitory Concentration
Protocol: as §1

[16] = tested on: Enterobacter cloacae IND + VE 1194E; conditions: read-out: Minimum Inhibitory Concentration
Protocol: as §1

[17] = tested on: Escherichia coli TEM9 2639E; conditions: TEM92639E, 20 h, read-out: Minimum Inhibitory Concentration
Protocol: as §1

Escherichia coli 3190Y = conditions: read-out: Minimum Inhibitory Concentration
Protocol: as §1

[18] = tested on: Klebsiella aerogenes SHV-1 1976E; conditions: SHV11976E
Protocol: as §1

[19] = tested on: Pseudomonas aeruginosa 10145; conditions: read-out: Minimum Inhibitory Concentration
Protocol: as §1

Proteus vulgaris 6059A = conditions: read-out: Minimum Inhibitory Concentration
Protocol: as §1

[20] = tested on: Serratia marcescens 1826E; conditions: read-out: Minimum Inhibitory Concentration
Protocol: as §1

[21] = S. typhimurium 14028A, Muller-Hinton agar, 37° C., 20 hours
[22] = Pseudomonas aeruginosa, P. aeruginosa 6065, Muller-Hinton agar, 37° C., 20 hours
[23] = S. aureus 6538P, Muller-Hinton agar, 37° C., 20 hours
[24] = Staphylococcus aureus, S. aureus 77, Muller-Hinton agar, 37° C., 20 hours
[25] = S. aureus epidermidis 887E, Muller-Hinton agar, 37° C., 20 hours
[26] = S. aureus giorgio, Muller-Hinton agar, 37° C., 20 hours
[27] = S. faecalis 29212A, Muller-Hinton agar, 37° C., 20 hours
[28] = P. aeruginosa 1912E, Muller-Hinton agar, 37° C., 20 hours
[29] = A. calcoaceticus 15473A, Muller-Hinton agar, 37° C., 20 hours
[30] = C. diversus 2046E, Muller-Hinton agar, 37° C., 20 hours
[31] = Staphylococcus aureus, S. aureus 241, Muller-Hinton agar, 37° C., 20 hours
[32] = E. cloacae IND + VE 1194E, Muller-Hinton agar, 37° C., 20 hours
[33] = E. coli 3190Y, Muller-Hinton agar, 37° C., 20 hours
[34] = K. aerogenes SHV-1 1976E, Muller-Hinton agar, 37° C., 20 hours
[35] = Pseudomonas aeruginosa, P. aeruginosa 10145, Muller-Hinton agar, 37° C., 20 hours
[36] = P. vulgaris 6059A, Muller-Hinton agar, 37° C., 20 hours
[37] = S. marcescens 1826E, Muller-Hinton agar, 37° C., 20 hours

Compound | MIC [1] [mg/L] | MIC [2, 21] [mg/L] | MIC [3] [mg/L] | MIC [4, 22] [mg/L] | MIC [5] [mg/L] | MIC [6] [mg/L] | MIC (Enterobacter cloacae P99) [mg/L] | MIC [7, 23] [mg/L] | MIC (Escherichia coli 851E) [mg/L] | MIC (Staphylococcus aureus 77; [24]) [mg/L] | MIC [8, 25] [mg/L] | MIC [9, 26] [mg/L] | MIC [10] [mg/L] | MIC [11, 27] [mg/L] | MIC [12, 28] [mg/L] | MIC [13, 29] [mg/L] | MIC [14, 30] [mg/L] | MIC [15, 31] [mg/L] | MIC [16, 32] [mg/L] | MIC [17] [mg/L] | further results
Nc1cc[n+](C/C=C/C2=C(C(=O)[O-])N3C(=O)[C@@H](NC(=O)/C(=N\O[C@@H](C(=O)O)c4ccc(O)c(O)c4)c4csc(N)n4)[C@H]3SC2)cn1 [Compound I-2b, 7-[(Z)-2-(2-aminothiazol-4-yl)-2-(α-carboxy-3,4-dihydroxybenzyloxyimino)acetamido]-3-[(E)-3-(4-aminopyrimidinium-1-yl)-1-propen-1-yl]-3-cephem-4-carboxylate] | 0.25 (≈ 0.374 µM) | 0.25 (≈ 0.374 µM) | 0.25 (≈ 0.374 µM) | 64 (≈ 95.7 µM) | 2 (≈ 2.99 µM) | 0.1 (≈ 0.15 µM) | 32 (≈ 47.9 µM) | 0.5 (≈ 0.748 µM) | 0.13 (≈ 0.194 µM) | 2 (≈ 2.99 µM) | 8 (≈ 12 µM) | 0.25 (≈ 0.374 µM) | 0.25 (≈ 0.374 µM) | 4 (≈ 5.98 µM) | 8 (≈ 12 µM) | 2 (≈ 2.99 µM) | 4 (≈ 5.98 µM) | 128 (≈ 191 µM) | 16 | 0.5 (≈ 0.748 µM) | MIC (Escherichia coli 10536; Escherichia coli, E. coli 10536, Muller-Hinton agar, 37° C., 20 hours): 0.13 mg/L (≈ 0.194 µM); MIC (Escherichia coli 3190Y; [33]): 0.13 mg/L (≈ 0.194 µM); MIC [18, 34]: 1 mg/L (≈ 1.5 µM); MIC [19, 35]: 8 mg/L (≈ 12 µM); MIC (Proteus vulgaris 6059A; [36]): 0.5 mg/L (≈ 0.748 µM); MIC [20, 37]: 1 mg/L (≈ 1.5 µM)
CC(C)(O/N=C(\C(=O)N[C@@H]1C(=O)N2C(C(=O)[O-])=C(C[n+]3ccccc3)CS[C@H]12)c1csc(N)n1)C(=O)O [CAZ, Ceftazidime, reference compound] | 8 (≈ 14.6 µM) |  | 0.25 (≈ 0.457 µM) |  | 0.5 (≈ 0.915 µM) | 8 (≈ 14.6 µM) | 64 (≈ 117 µM) |  | 0.063 (≈ 0.115 µM) |  |  |  | 16 (≈ 29.3 µM) |  |  |  |  |  |  | > 128 | MIC ([2]; TYPHIMURIUM, 20 h): 0.25 mg/L (≈ 0.457 µM); MIC ([4]; Pseudomonas aeruginosa, 6065, 20 h): 16 mg/L (≈ 29.3 µM); MIC (Escherichia coli 10536; Escherichia coli, 10536, 20 h): 0.13 mg/L (≈ 0.238 µM); MIC ([7]; 6538P, 20 h): 16 mg/L (≈ 29.3 µM); MIC (Staphylococcus aureus 77; Staphylococcus aureus, 77, 20 h): 32 mg/L (≈ 58.5 µM); MIC ([8]; 20 h): > 128 mg/L; MIC ([9]; 20 h): 4 mg/L (≈ 7.32 µM); MIC ([11]; 29212A, 20 h): > 128 mg/L; MIC ([12]; 1912E, 20 h): 1 mg/L (≈ 1.83 µM); MIC ([13]; 15473A, 20 h): 2 mg/L (≈ 3.66 µM); MIC ([14]; 2046E, 20 h): 0.5 mg/L (≈ 0.915 µM); MIC ([15]; Staphylococcus aureus, 241, 20 h): > 128 mg/L; MIC ([16]; 20 h): 128 mg/L (≈ 234 µM); MIC (Escherichia coli 3190Y; 3190Y, 20 h): 0.063 mg/L (≈ 0.115 µM); MIC ([18]; 20 h): 0.25 mg/L (≈ 0.457 µM); MIC ([19]; Pseudomonas aeruginosa, 10145, 20 h): 2 mg/L (≈ 3.66 µM); MIC (Proteus vulgaris 6059A; 6059A, 20 h): 0.063 mg/L (≈ 0.115 µM); MIC ([20]; 1826E, 20 h): 0.25 mg/L (≈ 0.457 µM)
Nc1cc(N)[n+](C/C=C/C2=C(C(=O)[O-])N3C(=O)[C@@H](NC(=O)/C(=N\O[C@@H](C(=O)O)c4ccc(O)c(O)c4)c4csc(N)n4)[C@H]3SC2)cn1 [Compound I-1b, 7-[(Z)-2-(2-aminothiazol-4-yl)-2-(α-carboxy-3,4-dihydroxybenzyloxyimino)acetamido]-3-[(E)-3-(4,6-diaminopyrimidinium-1-yl)-1-propen-1-yl]-3-cephem-4-carboxylate] | 0.5 (≈ 0.731 µM) | 0.13 (≈ 0.19 µM) | 0.25 (≈ 0.366 µM) | 32 (≈ 46.8 µM) | 2 (≈ 2.93 µM) | 2 (≈ 2.93 µM) | 128 (≈ 187 µM) | 0.5 (≈ 0.731 µM) | 0.13 (≈ 0.19 µM) | 2 (≈ 2.93 µM) | 64 (≈ 93.6 µM) | 0.5 (≈ 0.731 µM) | 0.25 (≈ 0.366 µM) | 8 (≈ 11.7 µM) | 64 (≈ 93.6 µM) | 4 (≈ 5.85 µM) | 16 (≈ 23.4 µM) | 128 (≈ 187 µM) | 64 | 2 (≈ 2.93 µM) | MIC (Escherichia coli 10536; Escherichia coli, 10536, 20 h): 0.13 mg/L (≈ 0.19 µM); MIC (Escherichia coli 3190Y; [33]): 0.13 mg/L (≈ 0.19 µM); MIC [18, 34]: 1 mg/L (≈ 1.46 µM); MIC [19, 35]: 32 mg/L (≈ 46.8 µM); MIC (Proteus vulgaris 6059A; [36]): 0.5 mg/L (≈ 0.731 µM); MIC [20, 37]: 2 mg/L (≈ 2.93 µM)
